Experimental data reported in patent US20180071317A1, “USE OF AGENTS THAT ALTER THE PERITUMORAL ENVIRONMENT FOR THE TREATMENT OF CANCER” (SERVICIO ANDALUZ DE SALUD, priority 2011, published 2018).

Columns and labels:
[1] = system: fibroblasts (PHF) co-cultivated with tumor cell lymphoblastic leukemia B (SDI); experiment: Marker expression (IHC) in PHF co-cultured with SDI tumor cells; assay type: cell-based, human; conditions: PHF co-cultivated with SDI + SP + NK1 antagonist
Experimental: (§1) All cultures were maintained 48 hours, following which the same cells were included in paraffin blocks for subsequent analysis of the expression of different markers by immunohistochemistry (see Example 1). […] All experiments were carried out sixfold. Analyzed markers in fibroblast cells (stromal cells) were: TGF-α, TGF-β1, TGF-β2, TGF-β3, SPARC, MMP-3, MMP-7, MMP-9, MMP-11, MMP-13 and MMP-14.

[2] = system: fibroblasts (PHF) cells co-cultured with human T lymphoma tumor (DERL-7); experiment: Marker expression (IHC) in PHF co-cultured with DERL-7 tumor cells; assay type: cell-based; conditions: PHF co-cultured with DERL-7 + SP + NK1 antagonist
[3] = system: fibroblasts (PHF) co-cultured with tumor cells, ovarian carcinoma (EFO-27); experiment: Marker expression (IHC) in PHF co-cultured with EFO-27 tumor cells; assay type: cell-based, human; conditions: co-culture with EFO-27; SP 1 μM + antagonist 1 μM; 48 h;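 further: values are the percentage of PHF fibroblasts positive for each marker, cultured in fresh plasma from a healthy human donor, each experiment run in six replicates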
Experimental: as §1

[4] = system: fibroblasts (PHF) co-cultured with tumor cells of human pancreatic adenocarcinoma (CAPAN-1); experiment: Marker expression (IHC) in PHF co-cultured with CAPAN-1 tumor cells; assay type: cell-based; conditions: co-culture with CAPAN-1; SP 1 μM + antagonist 1 μM; 48 h;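 further: cultures grown in fresh plasma from a healthy human donor, run in six replicates, value is percent of fibroblasts positive for each marker, compared with fibroblasts cultured alone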
[5] = system: fibroblasts (PHF) co-cultured with tumor cells, thyroid carcinoma (reference A-427); experiment: Marker expression (IHC) in PHF co-cultured with thyroid carcinoma tumor cells; assay type: cell-based, human; conditions: co-culture with thyroid carcinoma cells; SP 1 μM + antagonist 1 μM; 48 h;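 further: grown in fresh plasma from a healthy human donor, read-out is percent of fibroblasts positive for each marker, compared with fibroblasts cultured alone, run in six replicates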
Experimental: as §1

[6] = system: fibroblasts (PHF) co-cultured with tumor cells, thyroid carcinoma; experiment: as above; assay type: cell-based, human; conditions: co-culture with thyroid carcinoma cells; SP 1 μM + antagonist 1 μM; 48 h
Experimental: as §1

[7] = system: fibroblast cells in co-culture with cells isolated from primary human tumors; experiment: Marker expression (IHC) in fibroblasts co-cultured with primary human tumor cells (colon, pancreatic, lung carcinoma, glioma, multiple myeloma); assay type: cell-based
Experimental: To check that the interaction of the human primary tumor cells with stromal cells, [human fibroblasts,] stimulates the secretion of substances of importance for survival and tumor progression, co-cultures were performed using stromal cells with human fibroblast-tumor cells obtained directly from primary human tumors.
On this occasion, in order to identify, using immunohistochemical techniques, the secretion of substances of importance for the survival and progression of tumors, the following antibodies were used: TGF-α (SAB4502953), TGF-β1 (SAB4502954), TGF-β2 (SAB4502956), TGF-β3 (SAB4502957), SPARC (HPA002989), MMP-3 (HPA007875), MMP-7 (SAB4501894), MMP-9 (SAB4501896), MMP-11 (SAB4501898) MMP-13 (SAB4501900) and MMP-14 (SAB4501901) using specific antibodies against them. All antibodies used were rabbit polyclonal antibodies obtained from Sigma-Aldrich and were used at a concentration of 1/1000 to achieve these immunohistochemical studies. All experiments were carried out sixfold.

[8] = system: fibroblasts (PHF) co-cultured with human glioma tumor cells (GAMG); experiment: Marker expression (IHC) in PHF co-cultured with GAMG tumor cells; assay type: cell-based; conditions: co-culture with GAMG; SP 1 μM + antagonist 1 μM; 48 h;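 further: percentage of PHF fibroblasts positive for each marker, cultured in fresh plasma from a healthy donor, six replicates, with fibroblasts cultured alone as reference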
Experimental: as §1

[9] = Primary tumor cells (colon carcinoma) co-cultured + fibroblast + SP (1 μM) + NK1 antagonist 1 μM
[10] = co-culture with cells isolated from glioma, SP 1 μM + antagonist 1 μM
[11] = co-culture with cells isolated from lung cancer, SP 1 μM + antagonist 1 μM
[12] = co-culture with cells isolated from multiple myeloma, SP 1 μM + antagonist 1 μM
[13] = co-culture with cells isolated from pancreatic carcinoma, SP 1 μM + antagonist 1 μM

C[C@@H](O[C@H]1OCCN(Cc2n[nH]c(=O)[nH]2)[C@H]1c1ccc(F)cc1)c1cc(C(F)(F)F)cc(C(F)(F)F)c1 [Aprepitant]
0%: cells expressing MMP-3 [1] | cells expressing MMP-7 [1] | cells expressing MMP-9 [1] | cells expressing MMP-11 [1] | cells expressing MMP-13 [1] | cells expressing MMP-14 [1] | cells expressing SPARC [1] | cells expressing TGF-α [1] | cells expressing TGF-β1 [1] | cells expressing TGF-β2 [1] | cells expressing TGF-β3 [1] | cells expressing MMP-3 [2] | cells expressing MMP-7 [2] | cells expressing MMP-9 [2] | cells expressing MMP-11 [2] | cells expressing MMP-13 [2] | cells expressing MMP-14 [2] | cells expressing SPARC [2] | cells expressing TGF-α [2] | cells expressing TGF-β1 [2] | cells expressing TGF-β2 [2] | cells expressing TGF-β3 [2] | PHF cells expressing MMP-3 [3] | PHF cells expressing MMP-7 [3] | PHF cells expressing MMP-9 [3] | PHF cells expressing MMP-11 [3] | PHF cells expressing MMP-13 [3] | PHF cells expressing MMP-14 [3] | PHF cells expressing SPARC [3] | PHF cells expressing TGF-α [3] | PHF cells expressing TGF-β1 [3] | PHF cells expressing TGF-β2 [3] | PHF cells expressing TGF-β3 [3] | PHF cells expressing MMP-3 [4] | PHF cells expressing MMP-7 [4] | PHF cells expressing MMP-9 [4] | PHF cells expressing MMP-11 [4] | PHF cells expressing MMP-13 [4] | PHF cells expressing MMP-14 [4] | PHF cells expressing SPARC [4] | PHF cells expressing TGF-α [4] | PHF cells expressing TGF-β1 [4] | PHF cells expressing TGF-β2 [4] | PHF cells expressing TGF-β3 [4] | PHF cells expressing MMP-3 [5] | PHF cells expressing MMP-7 [5] | PHF cells expressing MMP-9 [5] | PHF cells expressing MMP-13 [5] | PHF cells expressing MMP-14 [5] | PHF cells expressing SPARC [5] | PHF cells expressing TGF-α [5] | PHF cells expressing TGF-β1 [5] | PHF cells expressing TGF-β2 [5] | PHF cells expressing TGF-β3 [5] | PHF cells expressing MMP-11 [6] | Percentage of fibroblast cells which expressed MMP-3 [7, 9] | Percentage of fibroblast cells which expressed MMP-7 [7, 9] | Percentage of fibroblast cells which expressed MMP-9 [7, 9] | Percentage of fibroblast cells which expressed MMP-11 [7, 9] | Percentage of fibroblast cells which expressed MMP-13 [7, 9] | Percentage of fibroblast cells which expressed MMP-14 [7, 9] | Percentage of fibroblast cells which expressed SPARC [7, 9] | Percentage of fibroblast cells which expressed TGFα [7, 9] | Percentage of fibroblast cells which expressed TGFβ1 [7, 9] | Percentage of fibroblast cells which expressed TGFβ2 [7, 9] | Percentage of fibroblast cells which expressed TGFβ3 [7, 9] | Percentage of fibroblast cells which expressed MMP-3 [7, 10] | Percentage of fibroblast cells which expressed MMP-7 [7, 10] | Percentage of fibroblast cells which expressed MMP-9 [7, 10] | Percentage of fibroblast cells which expressed MMP-11 [7, 10] | Percentage of fibroblast cells which expressed MMP-13 [7, 10] | Percentage of fibroblast cells which expressed MMP-14 [7, 10] | Percentage of fibroblast cells which expressed SPARC [7, 10] | Percentage of fibroblast cells which expressed TGFα [7, 10] | Percentage of fibroblast cells which expressed TGFβ1 [7, 10] | Percentage of fibroblast cells which expressed TGFβ2 [7, 10] | Percentage of fibroblast cells which expressed TGFβ3 [7, 10] | Percentage of fibroblast cells which expressed MMP-3 [7, 11] | Percentage of fibroblast cells which expressed MMP-7 [7, 11] | Percentage of fibroblast cells which expressed MMP-9 [7, 11] | Percentage of fibroblast cells which expressed MMP-11 [7, 11] | Percentage of fibroblast cells which expressed MMP-13 [7, 11] | Percentage of fibroblast cells which expressed MMP-14 [7, 11] | Percentage of fibroblast cells which expressed SPARC [7, 11] | Percentage of fibroblast cells which expressed TGFα [7, 11] | Percentage of fibroblast cells which expressed TGFβ1 [7, 11] | Percentage of fibroblast cells which expressed TGFβ2 [7, 11] | Percentage of fibroblast cells which expressed TGFβ3 [7, 11] | Percentage of fibroblast cells which expressed MMP-3 [7, 12] | Percentage of fibroblast cells which expressed MMP-7 [7, 12] | Percentage of fibroblast cells which expressed MMP-9 [7, 12] | Percentage of fibroblast cells which expressed MMP-11 [7, 12] | Percentage of fibroblast cells which expressed MMP-13 [7, 12] | Percentage of fibroblast cells which expressed MMP-14 [7, 12] | Percentage of fibroblast cells which expressed SPARC [7, 12] | Percentage of fibroblast cells which expressed TGFα [7, 12] | Percentage of fibroblast cells which expressed TGFβ1 [7, 12] | Percentage of fibroblast cells which expressed TGFβ2 [7, 12] | Percentage of fibroblast cells which expressed TGFβ3 [7, 12] | Percentage of fibroblast cells which expressed MMP-3 [7, 13] | Percentage of fibroblast cells which expressed MMP-7 [7, 13] | Percentage of fibroblast cells which expressed MMP-9 [7, 13] | Percentage of fibroblast cells which expressed MMP-11 [7, 13] | Percentage of fibroblast cells which expressed MMP-13 [7, 13] | Percentage of fibroblast cells which expressed MMP-14 [7, 13] | Percentage of fibroblast cells which expressed SPARC [7, 13] | Percentage of fibroblast cells which expressed TGFα [7, 13] | Percentage of fibroblast cells which expressed TGFβ1 [7, 13] | Percentage of fibroblast cells which expressed TGFβ2 [7, 13] | Percentage of fibroblast cells which expressed TGFβ3 [7, 13] | PHF cells expressing MMP-3 [8] | PHF cells expressing MMP-7 [8] | PHF cells expressing MMP-9 [8] | PHF cells expressing MMP-11 [8] | PHF cells expressing MMP-13 [8] | PHF cells expressing MMP-14 [8] | PHF cells expressing SPARC [8] | PHF cells expressing TGF-α [8] | PHF cells expressing TGF-β1 [8] | PHF cells expressing TGF-β2 [8] | PHF cells expressing TGF-β3 [8]
